In patent US10213407B2, “Compounds and methods for inhibiting production of trimethylamine” (The Procter & Gamble Company, priority 2015, dated 2019):

Target: Ec YeaWX lysate (Escherichia coli (strain K12), UniProt P0ABR7)
Test: Inhibition of formation of TMA from carnitine in Ec YeaWX lysate (d9-carnitine to d9-TMA, LC-MS/MS)
Assay type: biochemical
Details: conversion of carnitine to TMA; Ec YeaWX lysate 2.0 mg/mL protein, 250 μM NADPH, 50 μM d9-carnitine chloride, 37° C., two hours; read-out: TMA Inhibition (IC50, mol/L)
Description: EXAMPLE 3 provides an exemplary assay for identifying and characterizing compounds from Formula (I), or Formula (II), that inhibit the formation of TMA from carnitine.
Escherichia coli BL21*DE3::pET30a-Ec yeaWX #1 (Ec YeaWX) strain was generated as described below. The contiguous Escherichia coli coding sequence yeaW (equivalent to uniprot ID P0ABR7.1 (YeaW) (SEQ ID NO: 2)) and yeaX (equivalent to uniprot ID P76254.1 (YeaX) (SEQ ID NO: 3)) were PCR amplified from Escherichia coli strain K-12 substr. BW25113 genomic DNA. PCR primers (YeaW_Nde I_fwd2-SEQ ID NO: 4; YeaX_rev2-SEQ ID NO: 5) were designed to create a 5′ NdeI restriction site including the ATG start codon of yeaW and create a PstI restriction site just 3′ of the yeaX TAG stop codon.
The amplicon was restricted and cloned into the NdeI and PstI sites of the plasmid pET30a downstream of the inducible T7 promoter. A blast search of the resulting cloned amplicon DNA sequence (SEQ ID NO: 1) corresponded to nucleotide range 1884665 to 1886810 of Escherichia coli str. K-12 substr. MG1655 (NCBI Accession #NC_000913). The construct was transformed and grown in E. coli BL21(DE3) and the recombinant yeaWX overexpressed by addition of isopropyl β-D-1-thiogalactopyranoside (IPTG).
The bacteria were grown aerobically in 50 mL LB broth (Difco #244620; 10 g/L Tryptone, 5 g/L yeast extract, 10 g/L NaCl, 50 μg/mL kanamycin), in a 500 mL Erlenmeyer flask. The cultures were inoculated from glycerol stock of BL21*DE3::pET30a-Ec yeaWX #1 strain. Strains were cultured all day at 37° C. with 250 rpm shaking. Two 300 mL Minimal M9 Medium (6 g/L Na2HPO4, 3 g/L KH2PO4, 0.5 g/L NaCl, 1 g/L NH4Cl, 0.1 mM CaCl2, 1 mM MgSO4, 0.2% Dextrose, 1 mg/L Thiamine, 50 μg/mL kanamycin), in 1 L Erlenmeyer flasks, were inoculated with 5 mL of the LB broth day culture and cultured overnight at 37° C. with 250 rpm shaking. The overnight cultures were used to inoculate twelve 1 L cultures of Minimal M9 media in 2.8 L fluted Erlenmeyer flasks to an OD 600 nm of 0.05 (typically approximately 28 mLs), which were grown at 37° C. with 250 rpm shaking until an OD600 of approximately 0.4 was reached. Expression of YeaWX was induced with 1 mM IPTG and the induced cultures were further grown overnight at 37° C. with 250 rpm shaking. The biomass was pelleted by centrifugation at 6000×g for 12 minutes at 4° C. The cell pellet was suspended in 240 mL of ice-cold 1× Phosphate Buffered Saline (Ca^2+ and Mg^2+ free). Ninety micrograms of Lysozyme (Sigma #L6876 Lot #SLBG8654V; Sigma-Aldrich Corp., St. Louis, Mo.) was added and incubated with 320 rpm shaking for 30 minutes at 4° C. Lysis was achieved via French press with a 4° C. prechilled 1″ diameter chamber at 1000 psi (high ratio; internal PSI equivalent ˜16000). The lysate was centrifuged at 6,000×g for 12 minutes at 4° C. to pellet extra debris. Glycerol was added to the centrifuged lysate supernatant at a final concentration of 15% A protein concentration of the centrifuged lysate supernatant was determined by a BCA Protein Assay Kit (Pierce #23225), typically in the 2.5 to 4.5 mg/ml range. The centrifuged Ec YeaWX lysate supernatant was aliquoted into 20 mL volumes and stored frozen at −80° C.
Ec YeaWX lysate was diluted to 2.0 mg/mL protein with 1× Dulbecco's phosphate buffered saline (DPBS) plus 15% glycerol. Nicotinamide adenine dinucleotide phosphate (NADPH) was added to 250 μM. […]

Sequence of Ec YeaWX lysate (P0ABR7 whole entry): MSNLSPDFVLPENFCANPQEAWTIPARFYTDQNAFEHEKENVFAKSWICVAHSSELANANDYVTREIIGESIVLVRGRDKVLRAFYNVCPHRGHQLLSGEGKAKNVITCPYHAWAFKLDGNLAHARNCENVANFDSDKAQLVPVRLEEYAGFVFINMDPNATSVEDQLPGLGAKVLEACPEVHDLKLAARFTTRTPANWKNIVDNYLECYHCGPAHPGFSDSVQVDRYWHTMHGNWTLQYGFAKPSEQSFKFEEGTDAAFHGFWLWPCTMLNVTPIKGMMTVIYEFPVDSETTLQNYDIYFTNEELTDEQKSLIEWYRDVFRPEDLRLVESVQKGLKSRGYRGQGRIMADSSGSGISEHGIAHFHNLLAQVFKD

SMILES	IC50
CC[N+](C)(CC)CCCN=C=S [Compound 2, 3-Isothiocyanato-N,N-diethyl-N-methylpropanaminium iodide]	0.0002 mol/L
CCOC(=O)C(=O)C[N+](C)(C)CCN=C=S [Compound 5, N-(Ethoxypropyl-2,3-dione)-2-isothiocyanato-N,N-dimethylethan-1-aminium bromide]	0.00551 mol/L
CCOC(=O)C(=O)C[N+](C)(C)CCCN=C=S [Compound 6]	0.0002 mol/L
CC[N+](CC)(CCBr)CCCN=C=S [Compound 7, N-(2-Bromoethyl)-3-isothiocyanato-N,N-diethylpropan-1-aminium triflate]	0.00017 mol/L
CC[N+](CC)(CC#N)CCCN=C=S [Compound 9, N-Cyanomethyl-3-isothiocyanato-N,N-diethylpropan-1-aminium bromide]	0.0006 mol/L
